Tests used:
Test in all cases: MTT cell proliferation assay
Format in all cases: cell-based
[1] = test system: AML-193 cells; conditions: 72-hour MTT
Description: (§1) The MTT cell proliferation assay was used to study the cytotoxic properties of the compounds. The assay was performed according to the method described by Roche Molecular Biochemicals, with minor modifications. The assay is based on the cleavage of the tetrazolium salt, MTT, in the presence of an electron-coupling reagent. The water-insoluble formazan salt produced must be solubilized in an additional step. Cells grown in a 96-well tissue culture plate were incubated with the MTT solution for approximately 4 hours. After this incubation period, a water-insoluble formazan dye formed. After solubilization, the formazan dye was quantitated using a scanning multi-well spectrophotometer (ELISA reader). […] The cells were seeded at 5,000-10,000 cells in each well of 96-well plate in 100 μL of fresh culture medium and were allowed to attach overnight. The stock solutions of the compounds were diluted in 100 μL cell culture medium to obtain eight concentrations of each test compound, ranging from 1 nM to 30 μM. […] All optical densities were measured at 490 nm using a Vmax Kinetic Microplate Reader (Molecular Devices). In most cases, the assay was performed in duplicate and the results were presented as a mean percent inhibition to the negative control±SE. The following formula was used to calculate the percent of inhibition: Inhibition (%)=(1−(ODo/OD))×100.
(§2) Compounds 504, 510, 525 and 585 were further tested against selected solid and hematological cancer cell lines and selected normal cell lines in a 72-hour MTT cell proliferation assay.

[2] = test system: ANBL-6 cells; conditions: Homo sapiens, 72-hour MTT
Description: as §1, §2

[3] = test system: BT-549 cells; conditions: Homo sapiens, 72-hour MTT
Description: as §1, §2

[4] = test system: Calu-3 cells; conditions: Homo sapiens, 72-hour MTT
Description: as §1, §2

[5] = test system: DB cells; conditions: Homo sapiens, 72-hour MTT
Description: as §1, §2

[6] = test system: Farage cells; conditions: 72-hour MTT
Description: as §1, §2

[7] = test system: HCC-1143 cells; conditions: Homo sapiens, HCC1143, 72-hour MTT
Description: as §1, §2

[8] = test system: HCC-1428 cells; conditions: Homo sapiens, HCC1428, 72-hour MTT
Description: as §1, §2

[9] = test system: HCC-202 cells; conditions: HCC202, 72-hour MTT
Description: as §1, §2

[10] = test system: HCC-4006 cells; conditions: Homo sapiens, HCC4006, 72-hour MTT
Description: as §1, §2

[11] = test system: HCC-827 cells; conditions: Homo sapiens, HCC827, 72-hour MTT
Description: as §1, §2

[12] = test system: HCI-H358 cells; conditions: 72-hour MTT
Description: as §1, §2

[13] = test system: HCT116.1 cells; conditions: 72-hour MTT
Description: as §1, §2

[14] = test system: HS-Sultan cells; conditions: 72-hour MTT
Description: as §1, §2

[15] = test system: Hs578T cells; conditions: Homo sapiens, Hs-578T, 72-hour MTT
Description: as §1, §2

[16] = test system: Jurkat cells; conditions: Homo sapiens, 72-hour MTT
Description: as §1, §2

[17] = test system: K562 cells; conditions: Homo sapiens, 72-hour MTT
Description: as §1, §2

[18] = test system: L3.6pl cells; conditions: Homo sapiens, 72-hour MTT
Description: as §1, §2

[19] = test system: LN18 cells; conditions: Homo sapiens, LN-18, 72-hour MTT
Description: as §1, §2

[20] = test system: LS-180 cells; conditions: Homo sapiens, LS180, 72-hour MTT
Description: as §1, §2

[21] = test system: MCF7 cells; conditions: Homo sapiens, 72-hour MTT
Description: as §1, §2

[22] = test system: MV-4-11 cells; conditions: Homo sapiens, MV4-11, 72-hour MTT
Description: as §1, §2

[23] = test system: NCI-H1563 cells; conditions: Homo sapiens, 72-hour MTT
Description: as §1, §2

[24] = test system: NCI-H1993 cells; conditions: Homo sapiens, 72-hour MTT
Description: as §1, §2

[25] = test system: NCI-H2030 cells; conditions: Homo sapiens, 72-hour MTT
Description: as §1, §2

[26] = test system: NCI-H2170 cells; conditions: Homo sapiens, 72-hour MTT
Description: as §1, §2

[27] = test system: NCI-H508 cells; conditions: Homo sapiens, 72-hour MTT
Description: as §1, §2

[28] = test system: PANC-10.05 cells; conditions: Homo sapiens, Panc1005, 72-hour MTT
Description: as §1, §2

[29] = test system: PATU-8902 cells; conditions: 72-hour MTT
Description: as §1, §2

[30] = test system: PATU-8988T cells; conditions: Homo sapiens, 72-hour MTT
Description: as §1, §2

[31] = test system: Panc-1 cells; conditions: Homo sapiens, 72-hour MTT
Description: as §1, §2

[32] = test system: RKO cells; conditions: Homo sapiens, 72-hour MTT
Description: as §1, §2

[33] = test system: RWPE-1 cells; conditions: Homo sapiens, 72-hour MTT
Description: as §1, §2

[34] = test system: SHSY5Y cells; conditions: Homo sapiens, SH-SY5Y, 72-hour MTT
Description: as §1, §2

[35] = test system: SK-CO-1 cells; conditions: Homo sapiens, 72-hour MTT
Description: as §1, §2

[36] = test system: SNU-398 cells; conditions: Homo sapiens, 72-hour MTT
Description: as §1, §2

[37] = test system: SW-837 cells; conditions: Homo sapiens, SW837, 72-hour MTT
Description: as §1, §2

[38] = test system: THP1 cells; conditions: Homo sapiens, THP-1, 72-hour MTT
Description: as §1, §2

[39] = test system: U118MG cells; conditions: Homo sapiens, U-118-MG, 72-hour MTT
Description: as §1, §2

[40] = test system: WI-38 cells; conditions: Homo sapiens, 72-hour MTT
Description: as §1, §2

For `Nc1ccc(/C=C/C(=O)NCc2cc3cc(-c4ccc(C(=O)N5CCC(F)(F)CC5)cn4)cc(C(F)(F)F)c3o2)cn1` [Compound 585, (E)-3-(6-aminopyridin-3-yl)-N-((5-(5-(4,4-difluoropiperidine-1-carbonyl)pyridin-2-yl)-7-(trifluoromethyl)benzofuran-2-yl)methyl)acrylamide], the IC50 [1] was 30 nM, the IC50 [2] was 1010 nM and the IC50 [3] was 1530 nM. It also gave an IC50 [4] of 330 nM, an IC50 [5] of 290 nM and an IC50 [6] of 70 nM. The IC50 [7] was 210 nM, the IC50 [8] was 4.4 µM and the IC50 [9] was 1690 nM. For the same compound, the IC50 [10] was 740 nM, the IC50 [11] was 780 nM and the IC50 [12] was 800 nM. For the same compound, the IC50 [13] was greater than 10 µM, the IC50 [14] was 200 nM and the IC50 [15] was 250 nM. For the same compound, the IC50 [16] was 40 nM, the IC50 [17] was 1090 nM and the IC50 [18] was 70 nM. For the same compound, the IC50 [19] was 1660 nM, the IC50 [20] was 150 nM and the IC50 [21] was 700 nM. For the same compound, the IC50 [22] was 90 nM, the IC50 [23] was 390 nM and the IC50 [24] was greater than 10 µM. It also gave an IC50 [25] of 300 nM, an IC50 [26] of 1260 nM and an IC50 [27] of 1460 nM. It also gave an IC50 [28] of 870 nM, an IC50 [29] of 510 nM and an IC50 [30] of 540 nM. The IC50 [31] was 840 nM, the IC50 [32] was 50 nM and the IC50 [33] was 4 nM. It also gave an IC50 [34] of 120 nM, an IC50 [35] of 1190 nM and an IC50 [36] of 4.42 µM. For the same compound, the IC50 [37] was 600 nM, the IC50 [38] was 20 nM and the IC50 [39] was 50 nM. It also gave an IC50 [40] of 220 nM.
